The text below walks through data of patent publication US11912710B2 (UPPTHERA, INC., priority 2021, dated 2024).

Molecules are shown by their SMILES. Like-named read-outs stand apart in the source and are kept apart here.

What all share (type): cell-based
The target in one data set is T1, PLK1 (Homo sapiens, UniProt P53350).
T1 construct: endogenous in cells; host or cells: HeLa LgBit (Plk1-HiBit KI): HeLa cells stably expressing LgBit, with HiBit knocked into the endogenous Plk1 locus by CRISPR/Cas9
Description: Luciferase assay for PLK1 in HeLa LgBit (Plk1-HiBit KI) cell line. The following applies: 300 nM compound, luminescence after 9 hours, read-out: Activity: ratio of the luminescense value of compound treatment group to DMSO treatment group. The method, then: 2. Luciferase Assay for PLK1
(1) Preparation and Culture of HeLa LgBit (Plk1-HiBit KI) Cell Line
A HeLa cell line in which the LgBit vector was transfected and expressed stably was prepared. Then, after constructing gRNA and donor to express the HiBit amino acid sequence behind the C-terminal of the Plk1 gene, which was inherent in the cell, it was inserted into the cell together with a vector capable of expressing CRISPR/Cas9. Only the cells in which the insertion was completed and knock-in had progressed were selected, sub-cultured and used.
(2) Treatment of Compounds of the Present Invention and Method of Luciferase Assay
In the case of HeLa LgBit (Plk1-HiBit KI), the compounds were treated after being released after thymidine block, and the process was as follows. Thymidine (Sigma-Aldrich Cat. No. T9250-5G) was completely dissolved in DW and used in the experiment. For thymidine block, the products were treated with 2 mM of thymidine and then incubated for 24 hours. For release and chemical treatment, the medium was suctioned and washed with 1×PBS. TrypLE™ was added and incubated in 37° C. CO2 incubator for 5 min. Cells neutralized by adding complete media were counted through a counter. For each well of a 96-well culture plate (SPL), 3.3×10^4 cells and a total medium volume of 150 μL were seeded and incubated in a CO2 incubator.
Each cell line was incubated in a CO2 incubator for 18 hours, and Endurazine was added to each well to make up 4% of the total volume. After adding the compound of the present invention in a 96-well white plate (SPL) to a concentration of 300 nM, the wavelength of the plate reader (BMG Labtech, CLARIOstar Plus) was set to […], and then the luminescence was tracked in real time.
In Table 2, Activity represents the ratio of the luminescense value of each Exemplary Compound treatment group to DMSO treatment group (+++: <0.3, ++<0.6, +<0.7).

In the next data set the test system is MRC-5 cell line. Description: Cell viability assay (cytotoxicity) for MRC-5 cell line. As to conditions: for IC50: Homo sapiens, MRC5, 120 h. The method, then: 4. Cell Viability Assay for MRC-5 Cell Line
(1) Culture of MRC-5 Cell Line
Passage of cultured cells was maintained within P15.
(2) Treatment of Compounds of the Present Invention
Then, it was cultured in 37° C.
(3) Cytotoxicity Experiment
CO2 incubator for 4 hours.
Cell Viability Assay for MRC-5 cell line

For the next data set, the system named is NCI-H526 cell line. Put plainly: Cell viability assay for H526 cell line. As to conditions: Homo sapiens, NCI-H526, 120 h; H526 cells, 5 days, EZ-Cytox, 3000 nM to 0.46 nM. The protocol:
3. Cell Viability Assay for H526 Cell Line
(1) Culture of NCI-H526 Cell Line
(2) Treatment of Compounds of the Present Invention and Method of Cell Viability Assay
After treating the compound to each well to make the total volume of 200 μL, it was cultured in a CO2 incubator (Thermo Fisher Science, Cat. No. 4111) for 5 days.
The absorbance of the completely cultured sample was measured by setting the wavelength of a plate reader (BMG Labtech, CLARIOstar Plus) to […], and was measured after shaking for 3 minutes in a plate reader before measurement.
In Table 3, Activity represents IC50 value of each Exemplary Compound treatment group to H526 cell line (A: <30 nM, B: <50 nM, C: <100 nM, D: <200 nM, E: <400 nM).

[1] abbreviates: MRC-5 normal cell line, 5 days, EZ-Cytox, 10000 nM to 1.52 nM, read-out: Activity: IC50 value to MRC-5 cell line (Exemplary Compounds).
Where [2] appears, read: read-out: Activity: IC50 value to MRC-5 cell line (Comparative Compounds).

T1 sequence (P53350 whole entry): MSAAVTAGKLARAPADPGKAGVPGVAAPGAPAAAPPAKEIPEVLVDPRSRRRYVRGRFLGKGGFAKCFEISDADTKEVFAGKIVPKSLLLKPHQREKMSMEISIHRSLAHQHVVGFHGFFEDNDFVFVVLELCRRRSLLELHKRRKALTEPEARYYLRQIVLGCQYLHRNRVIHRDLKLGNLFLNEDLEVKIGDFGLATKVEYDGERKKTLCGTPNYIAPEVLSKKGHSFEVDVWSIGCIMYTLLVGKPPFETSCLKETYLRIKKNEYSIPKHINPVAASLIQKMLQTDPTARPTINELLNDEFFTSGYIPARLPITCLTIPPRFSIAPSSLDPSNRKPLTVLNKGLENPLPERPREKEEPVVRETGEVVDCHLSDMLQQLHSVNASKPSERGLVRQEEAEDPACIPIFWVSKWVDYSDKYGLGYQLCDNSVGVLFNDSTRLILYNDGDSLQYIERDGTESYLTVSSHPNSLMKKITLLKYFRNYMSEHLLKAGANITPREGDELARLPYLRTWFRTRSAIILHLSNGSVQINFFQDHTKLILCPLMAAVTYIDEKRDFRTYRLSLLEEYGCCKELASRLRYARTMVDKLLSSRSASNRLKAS

With `COc1cc(C(=O)NC2CCN(C(=O)CC3CCN(c4ccc(C5CCC(=O)NC5=O)cc4F)CC3)CC2)ccc1Nc1ncc2c(n1)N(C1CCCC1)CC(F)(F)C(=O)N2C` (stereo not shown) [Compound 10, 4-((9-cyclopentyl-7,7-difluoro-5-methyl-6-oxo-6,7,8,9-tetrahydro-5H-pyrimido[4,5-b][1,4]diazepin-2-yl)amino)-N-(1-(2-(1-(4-(2,6-dioxopiperidin-3-yl)-2-fluorophenyl)piperidin-4-yl)acetyl)piperidin-4-yl)-3-methoxybenzamide], the remaining activity at 0.3 µM at PLK1 is less than 30%. For the same molecule, the IC50 is more than 10 µM in the data set with MRC-5 cell line (setting [1]) and less than 50 nM in the data set with NCI-H526 cell line.

As for `COc1cc(C(=O)NC2CC3(CCN(CC4(C)CCN(c5ccc(C6CCC(=O)NC6=O)cc5F)CC4)CC3)C2)ccc1Nc1ncc2c(n1)N(C1CCCC1)CC(F)(F)C(=O)N2C` (stereo not shown) [Compound 26, 4-((9-cyclopentyl-7,7-difluoro-5-methyl-6-oxo-6,7,8,9-tetrahydro-5H-pyrimido[4,5-b][1,4]diazepin-2-yl)amino)-N-(7-((1-(4-(2,6-dioxopiperidin-3-yl)-2-fluorophenyl)-4-methylpiperidin-4-yl)methyl)-7-azaspiro[3.5]nonan-2-yl)-3-methoxybenzamide], at PLK1, the remaining activity at 0.3 µM is less than 60%. For the same molecule, the IC50 is 5.59 µM in the data set with MRC-5 cell line (setting [1]) and less than 50 nM with NCI-H526 cell line.

As to `CC[C@@H]1C(=O)N(C)c2cnc(Nc3ccc(C(=O)N[C@H]4CC[C@H](N5CCN(CC6CC6)CC5)CC4)cc3OC)nc2N1C(C)C` [Comparative Compound 3, Volasertib, reference compound], in the data set on MRC-5 cell line (setting [2]), the IC50 was determined as 2.94 µM.

In the case of `COc1cc(OCC2CC3(CCN(CC4CCN(c5ccc(C6CCC(=O)NC6=O)cc5F)CC4)CC3)C2)ccc1Nc1ncc2c(n1)N(C1CCCC1)CC(F)(F)C(=O)N2C` (stereo not shown) [Compound 17, 3-(4-(4-((2-((4-((9-cyclopentyl-7,7-difluoro-5-methyl-6-oxo-6,7,8,9-tetrahydro-5H-pyrimido[4,5-b][1,4]diazepin-2-yl)amino)-3-methoxyphenoxy)methyl)-7-azaspiro[3.5]nonan-7-yl)methyl)piperidin-1-yl)-3-fluorophenyl)piperidine-2,6-dione], the remaining activity at 0.3 µM at PLK1 is less than 30%. The same molecule registered an IC50 with NCI-H526 cell line of less than 200 nM.

`COc1cc(C(=O)NC2CC3(CCN(C[C@@H]4CCN(c5ccc(C6CCC(=O)NC6=O)cc5F)C[C@@H]4F)CC3)C2)ccc1Nc1ncc2c(n1)N(C1CCCC1)CC(F)(F)C(=O)N2C` (stereo partly drawn) [Compound 46, −((9-cyclopentyl-7,7-difluoro-5-methyl-6-oxo-6,7,8,9-tetrahydro-5H-pyrimido[4,5-b][1,4]diazepin-2-yl)amino)-N-(7-(((3R,4S)-1-(4-(2,6-dioxopiperidin-3-yl)-2-fluorophenyl)-3-fluoropiperidin-4-yl)methyl)-7-azaspiro[3.5]nonan-2-yl)-3-methoxybenzamide]: the remaining activity at 0.3 µM on PLK1 was less than 30%.

Take `COc1cc(C(=O)NN2CC3(CCN(CC4CCN(c5ccc(C6CCC(=O)NC6=O)cc5F)CC4)CC3)C2)ccc1Nc1ncc2c(n1)N(C1CCCC1)CC(F)(F)C(=O)N2C` (stereo not shown) [Compound 44]: the remaining activity at 0.3 µM at PLK1 was less than 60%. Besides, in the data set with NCI-H526 cell line, the IC50 is less than 30 nM.

`COc1cc(C(=O)NN2CCC(N3CC4(CCN(c5ccc(C6CCC(=O)NC6=O)cc5F)CC4)C3)CC2)ccc1Nc1ncc2c(n1)N(C1CCCC1)CC(F)(F)C(=O)N2C` (stereo not shown) [Compound 18, 4-((9-cyclopentyl-7,7-difluoro-5-methyl-6-oxo-6,7,8,9-tetrahydro-5H-pyrimido[4,5-b][1,4]diazepin-2-yl)amino)-N-(4-(7-(4-(2,6-dioxopiperidin-3-yl)-2-fluorophenyl)-2,7-diazaspiro[3.5]nonan-2-yl)piperidin-1-yl)-3-methoxybenzamide]: the remaining activity at 0.3 µM on PLK1 was less than 60%. In the data set on NCI-H526 cell line, this molecule displayed an IC50 of less than 30 nM.

Turning to `COc1cc(C(=O)NN2CCC(C3CN(c4ccc(C5CCC(=O)NC5=O)cc4F)C3)CC2)ccc1Nc1ncc2c(n1)N(C1CCCC1)CC(F)(F)C(=O)N2C` (stereo not shown) [Compound 43, 4-((9-cyclopentyl-7,7-difluoro-5-methyl-6-oxo-6,7,8,9-tetrahydro-5H-pyrimido[4,5-b][1,4]diazepin-2-yl)amino)-N-(4-(1-(4-(2,6-dioxopiperidin-3-yl)-2-fluorophenyl)azetidin-3-yl)piperidin-1-yl)-3-methoxybenzamide], the remaining activity at 0.3 µM at PLK1 is less than 60%. In the data set on NCI-H526 cell line, this molecule registered an IC50 of less than 50 nM.

For `COc1cc(C(=O)NC2CCN(C3CN(c4ccc(C5CCC(=O)NC5=O)cc4F)C3)CC2)ccc1Nc1ncc2c(n1)N(C1CCCC1)CC(F)(F)C(=O)N2C` (stereo not shown) [Compound 42, 4-((9-cyclopentyl-7,7-difluoro-5-methyl-6-oxo-6,7,8,9-tetrahydro-5H-pyrimido[4,5-b][1,4]diazepin-2-yl)amino)-N-(1-(1-(4-(2,6-dioxopiperidin-3-yl)-2-fluorophenyl)azetidin-3-yl)piperidin-4-yl)-3-methoxybenzamide], the remaining activity at 0.3 µM on PLK1 is less than 30%. The molecule further had an IC50 with NCI-H526 cell line of less than 30 nM.

Consider `COc1cc(C(=O)NC2CC3(CCN(CC4CCN(c5cccc(N6CCC(=O)NC6=O)c5)CC4)CC3)C2)ccc1Nc1ncc2c(n1)N(C1CCCC1)CC(F)(F)C(=O)N2C` [Compound 34, 4-((9-cyclopentyl-7,7-difluoro-5-methyl-6-oxo-6,7,8,9-tetrahydro-5H-pyrimido[4,5-b][1,4]diazepin-2-yl)amino)-N-(7-((1-(3-(2,4-dioxotetrahydropyrimidin-1(2H)-yl)phenyl)piperidin-4-yl)methyl)-7-azaspiro[3.5]nonan-2-yl)-3-methoxybenzamide], for which the remaining activity at 0.3 µM on PLK1 was less than 60%. This molecule gave an IC50 in the data set with NCI-H526 cell line of less than 30 nM.

For `COc1cc(C(=O)NC2CCN(C)CC2)c(F)cc1Nc1ncc2c(n1)N(C1CCCC1)CC(F)(F)C(=O)N2C` [Comparative Compound 4, TAK960, reference compound], the IC50 in the data set on MRC-5 cell line (setting [2]) is 9.15 µM.

For the molecule `COc1cc(C(=O)NC2CC23CCN(CC2CCN(c4ccc(C5CCC(=O)NC5=O)cc4F)CC2)CC3)ccc1Nc1ncc2c(n1)N(C1CCCC1)CC(F)(F)C(=O)N2C` (stereo not shown) [Compound 23, 4-((9-cyclopentyl-7,7-difluoro-5-methyl-6-oxo-6,7,8,9-tetrahydro-5H-pyrimido[4,5-b][1,4]diazepin-2-yl)amino)-N-(6-((1-(4-(2,6-dioxopiperidin-3-yl)-2-fluorophenyl)piperidin-4-yl)methyl)-6-azaspiro[2.5]octan-1-yl)-3-methoxybenzamide], on PLK1, the remaining activity at 0.3 µM is less than 30%. Besides, in the data set on NCI-H526 cell line, the IC50 is less than 30 nM.

In the case of `COc1cc(C(=O)NC2CC3(CCN(CC4CCN(c5cccc(C6CCC(=O)NC6=O)c5)CC4)CC3)C2)ccc1Nc1ncc2c(n1)N(C1CCCC1)CC(F)(F)C(=O)N2C` (stereo not shown) [Compound 41, 4-((9-cyclopentyl-7,7-difluoro-5-methyl-6-oxo-6,7,8,9-tetrahydro-5H-pyrimido[4,5-b][1,4]diazepin-2-yl)amino)-N-(7-((1-(3-(2,6-dioxopiperidin-3-yl)phenyl)piperidin-4-yl)methyl)-7-azaspiro[3.5]nonan-2-yl)-3-methoxybenzamide], the remaining activity at 0.3 µM at PLK1 was less than 60%. Moreover, in the data set with NCI-H526 cell line, the IC50 was less than 30 nM.

For the molecule `CC[C@@H]1C(=O)N(C)c2cnc(Nc3ccc(C(=O)NC4CCN(C)CC4)cc3OC)nc2N1C1CCCC1` [Comparative Compound 2, BI2536, reference compound], the 50% inhibitory concentration (IC50) with MRC-5 cell line (setting [2]) came to 3.09 µM.

As for `CC[C@@H]1C(=O)N(C)c2cnc(Nc3ccc(C(=O)NCCOCCOCCNc4cccc5c4C(=O)N(C4CCC(=O)NC4=O)C5=O)cc3OC)nc2N1C1CCCC1` (stereo partly shown) [Comparative Compound 1, reference compound], the IC50 with MRC-5 cell line (MRC-5 normal cell line, 5 days, EZ-Cytox, 10000 nM to 1.52 nM, read-out: Activity: IC50 value to MRC-5 cell line (Comparative Compounds)) came out at 0.107 µM. The “cytotoxicity in normal cell line” value with MRC-5 cell line (MRC-5 normal cell line, statement in words) is given as “high level of cytotoxicity”.
